Structures are written as SMILES.

In general, IC50 refers to the point on the concentration scale where inhibition reaches its midpoint. A low value points to higher potency.

The experiment has as its system IL-1b. In words: Mouse BMDM IL-1b Assay. The settings on record: Macrophage; C57BL6 bone marrow derived macrophages; 200 ng/mL Ultrapure LPS-B5 3 hours, compound 30 minutes, 5 mM ATP 45 minutes; mouse IL-1b ELISA of supernatant. Type of experiment: cell-based. Here is the method:
Example 8: Mouse BMDM IL-1b Assay
Mouse bone marrow cells from C57BL6 tibia and femur were culture in complete Isocov's Media supplemented with 20 ng/mL MCSF (BMDM media) at a density of 50 million cells/15 cm Petri dish. Fresh media was changed every 3 days, and bone marrow derived macrophages were collected, washed, and counted on day 7. Cells were seeded into 96 well plates at a density of 5×10^4 cells per well in 100 uL of BMDM media and cultured overnight. The cells were stimulated at 37° C. with 200 ng/mL Ultrapure LPS-B5 for 3 hours before pre-diluted compounds were added. 30 minutes after compound addition, 5 mM ATP was added for the secondary stimulation for 45 minutes. After stimulation, the plates were briefly spun down, and 50 uL of supernatant was harvested from each well. ELISA for mouse IL-1b was performed with 1:10 and 1:100 diluted supernatant using pre-coated kits. IL-1b concentrations were calculated based on pre-titrated standards, and compound inhibition IC50 is generated using the Levenberg Marquardt damped lease-square method.
Background: ELISA stands for enzyme-linked immunosorbent assay.
In turn, `C[C@@]1(O)c2cc(S(=O)(=O)NC(=O)Nc3c4c(cc5c3CCC5)CCC4)oc2[C@@H]2CC[C@H]1C2` [Compound 41, (4S,5S,8R)-N-((1,2,3,5,6,7-hexahydro-s-indacen-4-yl)carbamoyl)-4-hydroxy-4-methyl-5,6,7,8-tetrahydro-4H-5,8-methanocyclohepta[b]furan-2-sulfonamide] displayed an IC50 of under 100 nM. For `C[C@]1(O)c2cc(S(=O)(=O)NC(=O)Nc3c4c(cc5c3CCC5)CCC4)oc2[C@H]2CC[C@@H]1C2` [Compound 40, (4R,5R,8S)-N-((1,2,3,5,6,7-hexahydro-s-indacen-4-yl)carbamoyl)-4-hydroxy-4-methyl-5,6,7,8-tetrahydro-4H-5,8-methanocyclohepta[b]furan-2-sulfonamide] the value was under 100 nM; for `CC(C)c1cccc(C(C)C)c1CC(=O)NS(=O)(=O)c1cc2c(o1)C1CCC(C1)C2(C)O` (stereo not drawn) [Compound 16, 2-(2,6-diisopropylphenyl)-N-((4-hydroxy-4-methyl-5,6,7,8-tetrahydro-4H-5,8-methanocyclohepta[b]furan-2-yl)sulfonyl)acetamide], 100 to 1000 nM. With `CC(C)c1ccc(Cl)c(C(C)C)c1NC(=O)NS(=O)(=O)c1cc2c(o1)C1CCC(C1)C2O` (stereo not drawn) [Compound 25, N-((3-chloro-2,6-diisopropylphenyl)carbamoyl)-4-hydroxy-5,6,7,8-tetrahydro-4H-5,8-methanocyclohepta[b]furan-2-sulfonamide] the figure was 100 to 1000 nM.

The molecule `O=C(Nc1c2c(cc3c1CCC3)CCC2)NS(=O)(=O)c1cc2c(o1)C1CCC(C1)C2=O` (stereo not drawn) [Compound 7, N-((1,2,3,5,6,7-hexahydro-s-indacen-4-yl)carbamoyl)-4-oxo-5,6,7,8-tetrahydro-4H-5,8-methanocyclohepta[b]furan-2-sulfonamide] returned an IC50 of under 100 nM.

Molecule `CC1(O)c2cc(S(=O)(=O)NC(=O)Nc3c4c(cc5c3CCC5)CCC4)oc2C2CCC1CC2` (stereo not drawn) [Compound 21, N-((1,2,3,5,6,7-hexahydro-s-indacen-4-yl)carbamoyl)-4-hydroxy-4-methyl-5,6,7,8-tetrahydro-4H-5,8-ethanocyclohepta[b]furan-2-sulfonamide] had an IC50 of under 100 nM. With `CC(C)c1cccc(C(C)C)c1CC(=O)NS(=O)(=O)c1cc2c(o1)C1CCC(CC1)C2(C)O` (stereo not drawn) [Compound 38, 2-(2,6-diisopropylphenyl)-N-((4-hydroxy-4-methyl-5,6,7,8-tetrahydro-4H-5,8-ethanocyclohepta[b]furan-2-yl)sulfonyl)acetamide] the figure was 100 to 1000 nM; with `CC(C)c1cccc(C(C)C)c1CC(=O)NS(=O)(=O)c1cc2c(o1)C1CCC(C1)C2=O` (stereo not drawn) [Compound 14, 2-(2,6-diisopropylphenyl)-N-((4-oxo-5,6,7,8-tetrahydro-4H-5,8-methanocyclohepta[b]furan-2-yl)sulfonyl)acetamide], 1000 to 10000 nM.

In the case of `C[C@@]1(O)c2cc(S(=O)(=O)NC(=O)Nc3c4c(cc5c3CCC5)CCC4)oc2C2CCC1CC2` [Compound 43, (S)-N-((1,2,3,5,6,7-hexahydro-s-indacen-4-yl)carbamoyl)-4-hydroxy-4-methyl-5,6,7,8-tetrahydro-4H-5,8-ethanocyclohepta[b]furan-2-sulfonamide], the IC50 is under 100 nM.

Regarding `O=C(Nc1c2c(cc3c1CCC3)CCC2)NS(=O)(=O)c1cc2c(o1)[C@H]1CC[C@H](C1)C2O` (stereo partly drawn) [Compound 49, (5R,8S)-N-((1,2,3,5,6,7-hexahydro-s-indacen-4-yl)carbamoyl)-4-hydroxy-5,6,7,8-tetrahydro-4H-5,8-methanocyclohepta[b]furan-2-sulfonamide], the IC50 is 100 to 1000 nM. For `C[C@@]1(O)c2cc(S(=O)(=O)NC(=O)Nc3c4c(cc5c3CCC5)CCC4)oc2[C@H]2CC[C@@H]1C2` [Compound 39, (4S,5R,8S)-N-((1,2,3,5,6,7-hexahydro-s-indacen-4-yl)carbamoyl)-4-hydroxy-4-methyl-5,6,7,8-tetrahydro-4H-5,8-methanocyclohepta[b]furan-2-sulfonamide] the value was 100 to 1000 nM; for `C[C@]1(O)c2cc(S(=O)(=O)NC(=O)Nc3c4c(cc5c3CCC5)CCC4)oc2C2CCC1CC2` [Compound 44, (R)-N-((1,2,3,5,6,7-hexahydro-s-indacen-4-yl)carbamoyl)-4-hydroxy-4-methyl-5,6,7,8-tetrahydro-4H-5,8-ethanocyclohepta[b]furan-2-sulfonamide], under 100 nM. With `O=C(Nc1c2c(cc3c1CCC3)CCC2)NS(=O)(=O)c1cc2c(o1)C1CCC(CC1)C2CO` (stereo not drawn) [Compound 46, N-((1,2,3,5,6,7-hexahydro-s-indacen-4-yl)carbamoyl)-4-(hydroxymethyl)-5,6,7,8-tetrahydro-4H-5,8-ethanocyclohepta[b]furan-2-sulfonamide], the IC50 was under 100 nM. In turn, `CC(C)c1cc(F)cc(C(C)C)c1NC(=O)NS(=O)(=O)c1cc2c(o1)C1CCC(C1)C2(C)O` (stereo not drawn) [Compound 28, N-((4-fluoro-2,6-diisopropylphenyl)carbamoyl)-4-hydroxy-4-methyl-5,6,7,8-tetrahydro-4H-5,8-methanocyclohepta[b]furan-2-sulfonamide] displayed an IC50 of 100 to 1000 nM.

Molecule `O=C(Nc1c2c(cc3c1CCC3)CCC2)NS(=O)(=O)c1cc2c(o1)C1CCC(CC1)C2O` (stereo not drawn) [Compound 22, N-((1,2,3,5,6,7-hexahydro-s-indacen-4-yl)carbamoyl)-4-hydroxy-5,6,7,8-tetrahydro-4H-5,8-ethanocyclohepta[b]furan-2-sulfonamide] showed an IC50 of under 100 nM. With `CC(C)c1ccc(Cl)c(C(C)C)c1NC(=O)NS(=O)(=O)c1cc2c(o1)C1CCC(C1)C2(C)O` (stereo not drawn) [Compound 26, N-((3-chloro-2,6-diisopropylphenyl)carbamoyl)-4-hydroxy-4-methyl-5,6,7,8-tetrahydro-4H-5,8-methanocyclohepta[b]furan-2-sulfonamide] the figure was 100 to 1000 nM; with `O=C(Nc1c2c(c(Cl)c3c1CCC3)CCC2)NS(=O)(=O)c1cc2c(o1)C1CCC(C1)C2O` (stereo not drawn) [Compound 19, N-((8-chloro-1,2,3,5,6,7-hexahydro-s-indacen-4-yl)carbamoyl)-4-hydroxy-5,6,7,8-tetrahydro-4H-5,8-methanocyclohepta[b]furan-2-sulfonamide], under 100 nM; with `CC(C)c1cc(Cl)cc(C(C)C)c1NC(=O)NS(=O)(=O)c1cc2c(o1)C1CCC(C1)C2(C)O` (stereo not drawn) [Compound 29, N-((4-chloro-2,6-diisopropylphenyl)carbamoyl)-4-hydroxy-4-methyl-5,6,7,8-tetrahydro-4H-5,8-methanocyclohepta[b]furan-2-sulfonamide], 100 to 1000 nM. For `O=C(Nc1c2c(cc3c1CCC3)CCC2)NS(=O)(=O)c1cc2c(o1)C1CCC(CC1)C2=O` [Compound 23, N-((1,2,3,5,6,7-hexahydro-s-indacen-4-yl)carbamoyl)-4-oxo-5,6,7,8-tetrahydro-4H-5,8-ethanocyclohepta[b]furan-2-sulfonamide] the value was under 100 nM. For `O=C(Nc1c2c(cc3c1CCC3)CCC2)NS(=O)(=O)c1ccc2c(c1)C(=O)C1CCC2CC1` [Compound 32, N-((1,2,3,5,6,7-hexahydro-s-indacen-4-yl)carbamoyl)-9-oxo-6,7,8,9-tetrahydro-5H-5,8-ethanobenzo[7]annulene-2-sulfonamide] the value was under 100 nM; for `CC(C)c1ccc(F)c(C(C)C)c1NC(=O)NS(=O)(=O)c1cc2c(o1)C1CCC(C1)C2O` (stereo not drawn) [Compound 37, N-((3-fluoro-2,6-diisopropylphenyl)carbamoyl)-4-hydroxy-5,6,7,8-tetrahydro-4H-5,8-methanocyclohepta[b]furan-2-sulfonamide], 100 to 1000 nM.

For the origin of these results see patent US12351564B2, “NLRP3 modulators” (Zomagen Biosciences Ltd, priority 2019, dated 2025).
